What was measured:
miR-22 promoter = assay: Bisulfite sequencing of miR-22 promoter in ATRA-treated THP-1 cells; type: cell-based, human; settings: 1 μM ATRA or DMSO, 72 hrs
miR-22 promoter region = assay: ChIP-qPCR of miR-22 promoter region in ATRA-treated THP-1 cells; type: cell-based, human; settings: 1 μM ATRA, 72 hours
Method: (§1) For the ATRA-treatment study, THP-1 cells were seeded at a concentration of 0.4×10^6/mL and treated with ATRA (1 μmol/L) or vehicle control (DMSO, 0.001%) for 72 hours before cells were collected for RNA analysis or CUP assays.
ChIP assay was performed, as described previously^14, 17, with SABiosciences Corporation's ChampionChiP™ One-Day kit (Qiagen, Frederick, Md.) following the manufacturer's protocol, with some modifications. Briefly, pellets of 5×10^6 cells were treated with fresh fixing buffer (1% formaldehyde) for 10 min at 37° C. to crosslink DNA and proteins. The reaction was terminated by the addition of stop buffer and incubated at room temperature for 5 min. After cell lysis, the cross-linked chromatin was sonicated to an average size of ˜500 bp and was immunoprecipitated with antibodies against TET1, GFI1 (Santa Cruz Biotechnology Inc., Santa Cruz, Calif.), the N′-terminal portion of MLL (MLL-N), the C′-terminal of MLL (MLL-C), H3K27Me3, H3K4Me3, RNA polymerase II, EZH2, SIN3A or IgG (Abcam, Cambridge, Mass.). Purified ChIP DNA was amplified by real-time qPCR using specific primers targeting the CpG-enriched upstream region of human miR-22: Forward: 5′-GTT GTT GGA GTC GTG AGT G-3′ (SEQ ID NO: 15); reverse: 5′-CGC TCC ACC TTT CCT TAA A-3′ (SEQ ID NO: 16); or mouse miR-22: Forward: 5′-TGA ATG GGC GGG AGT AA-3′ (SEQ ID NO: 17); reverse: 5′-CCAC GAG CTG CGA ATG AA-3′ (SEQ ID NO: 18).

THP-1 cells = assay: ATRA-treatment study, gene expression (qPCR) in THP-1 cells; type: cell-based, human; settings: 1 μM ATRA, 72 hours, vs DMSO
Method: Total RNA was extracted with the miRNeasy extraction kit (Qiagen, Valencia, Calif.) and was used as template to synthesize cDNA for quantitative RT-PCR (qPCR) analysis in a 7900HT real-time PCR system (Applied Biosystems, Foster City, Calif.). TaqMan qPCR assay was performed to validate the differential expression patterns of miR-22 using commercial kits from Applied Biosystems (Cat. #4427975). Sequences for the controls are: sno202: 5′-[…]-3′ (SEQ ID NO: 1); RNU6B: 5′-[…]-3′ (SEQ ID NO: 4). qPCR with SYBR Green dye (Qiagen) was used to determine expression of mRNA genes. snoRNA202, RNU48, Gapdh or GAPDH were used as endogenous controls for qPCR of miRNA and mRNA, respectively. Each sample was run in triplicate. qPCR primers are available upon request. For determining the miR-22 DNA locus copy number, TaqMan qPCR assay was used as described previously^57.
as §1

MONOMAC-6 cells [1] = assay: Viability and apoptosis of MONOMAC-6 cells treated with dendrimers; type: cell-based, human; settings: compared with PBS
MONOMAC-6 cells [2] = assay: Cellular uptake of dendrimers in MONOMAC-6 cells; type: cell-based, human
Source text: (§2) In order to selectively deliver miR-22 oligos to FLT3-expressing AML cells, Poly(amidoamine) (PAMAM) dendrimers (Hong S, et al. Bioconjugate Chemistry. 2006; 17:728-34, Hong S, et al. Bioconjugate Chemistry. 2009; 20:1503-13, and Sunoqrot S, et al. J Control Release. 2014; 191:115-22, incorporated herein by reference) are selected as the basis of the nanoparticle carriers, and conjugated with the near-infrared dye Cyanine 5.5 (Cy5.5) for monitoring the dynamic distributions of the nanoparticles, and FLT3 ligand (FLT3L) proteins for specific targeting FLT3 on the cell surface. H2B, a nuclear histone protein with similar molecular weight as FLT3L, was conjugated as a negative control. G7-FLT3L dendrimers will efficiently and selectively target AML cells with FLT3 overexpression.

U937 cells = assay: Cellular uptake of dendrimers in U937 cells; type: cell-based; settings: U937 cells (very low levels of FLT)
Source text: as §2

| Molecule | methylation status of the miR-22 promoter (miR-22 promoter) | H3K4Me3 modifications at miR-22 promoter region (miR-22 promoter region) | H3K27me3 modifications at miR-22 promoter region (miR-22 promoter region) | RNA polymerase II occupancy at miR-22 promoter region (miR-22 promoter region) | binding of GFI1, TET1, EZH2 and SIN3A to the miR-22 promoter region (miR-22 promoter region) | binding of MLL protein to the miR-22 promoter region (reduction) (miR-22 promoter region) | WDR81 level (THP-1 cells) | expression of TET1, EZH2 and SIN3A (THP-1 cells) | expression of TET2 or TET3 (down-regulation) (THP-1 cells) | increase in miR-22 expression level (THP-1 cells) | transcription level of GFI1 (THP-1 cells) | viability and apoptosis (cytotoxicity) (MONOMAC-6 cells [1]) | one-hour uptake ratio (MONOMAC-6 cells [2]; FLT3-overexpressing AML cells, one hour) | uptake ratio after suppression of endogenous FLT3 expression (MONOMAC-6 cells [2]; MONOMAC-6 cells overexpressing miR-22) | uptake ratio after 24 hours' treatment (MONOMAC-6 cells [2]; MONOMAC-6 cells, 24 hours, G7-FLT3L vs G7-H2B control) | uptake ratios, G7-FLT3L vs G7-H2B (U937 cells) |
| --- | --- | --- | --- | --- | --- | --- | --- | --- | --- | --- | --- | --- | --- | --- | --- | --- |
| CC1=C(/C=C/C(C)=C/C=C/C(C)=C/C(=O)O)C(C)(C)CCC1 [ATRA, all-trans-retinoic acid] | hypomethylated | no significant change | significantly decreased | increased | remarkably reduced | not | no significant effects | significantly down-regulated | not | more than 5 fold | substantially reduced |  |  |  |  |  |
| G7-FLT3L dendrimers: FLT3L-conjugated Generation 7 (G7) PAMAM dendrimers, Cy5.5-labelled, targeting FLT3 on AML cells (conjugate) TQDCSFQHSPISSDFAVKIRELSDYLLQDYPVTVASNLQDEELCGGLWRLVLAQRWMERLKTVAGSKMQGLLERVNTEIHFVTKCAFQPPPSCLRFVQTNISRLLQETSEQLVALKPWITRQNFSRCLELQCQPDSSTLPPPWSPRPLEATAPTA |  |  |  |  |  |  |  |  |  |  |  | low, if any, cytotoxicity | 23.6% | significant decrease | significantly higher | no significant difference |
